T/C data for eleven compounds are collected here from PubChem BioAssay AID226 (DTP/NCI, 2004).

Values joined by “and” are separate entries in the source; they are usually repeats but may differ in a detail not shown here. Equal entries are not always repeated. Toxic doses and inconclusive results are not listed.

This assay has as its system B6C3F1 mice, intracerebral ependymoblastoma, median survival T/C. As to the kind of experiment: NCI In Vivo Anticancer Drug Screen. Data for tumor model Ependymoblastoma (intracerebral) in B6C3F1 mice. The conditions noted are these: endpoint: median survival time, higher = longer survival. The method, then:
The antitumor activity of compounds was measured in mice bearing transplantable tumors. Survival or tumor size were measured and the results are expressed as the measurement made in the treated group (T) divided by the measurement made in the vehicle treated control group (C). The tumor model used in this assay is Ependymoblastoma (intracerebral) in B6C3F1 mice

Where [1] appears, read: dose: 8.0 mg/kg/injection, schedule: Q01DX005 (ip), vehicle: Klucel (hydroxypropylcellulose) (HPC).
Where [2] appears, read: dose: 16.0 mg/kg/injection, schedule: Q01DX005 (ip), vehicle: Klucel (hydroxypropylcellulose) (HPC).
The mark [3] stands for this setting: dose: 32.0 mg/kg/injection, schedule: Q01DX005 (ip), vehicle: Klucel (hydroxypropylcellulose) (HPC).
Setting [4] is: dose: 64.0 mg/kg/injection, schedule: Q01DX005 (ip), vehicle: Klucel (hydroxypropylcellulose) (HPC).
[5] abbreviates: dose: 128.0 mg/kg/injection, schedule: Q01DX005 (ip), vehicle: Klucel (hydroxypropylcellulose) (HPC).
Setting [6] is: dose: 256.0 mg/kg/injection, schedule: Q01DX005 (ip), vehicle: Klucel (hydroxypropylcellulose) (HPC).
Where [7] appears, read: dose: 512.0 mg/kg/injection, schedule: Q01DX005 (ip), vehicle: Klucel (hydroxypropylcellulose) (HPC).
Setting [8] is: dose: 128.0 mg/kg/injection, schedule: Q01DX005 (ip), vehicle: saline with Tween-80.
Where [9] appears, read: dose: 128.0 mg/kg/injection, schedule: Q01DX005 (ip), vehicle: saline.
The mark [10] stands for this setting: dose: 16.0 mg/kg/injection, schedule: Q01DX005 (ip), vehicle: saline with Tween-80.
Setting [11] is: dose: 32.0 mg/kg/injection, schedule: Q01DX005 (ip), vehicle: saline with Tween-80.

As to `NC(CO)(CO)CO`, the T/C runs as follows: (dose: 200.0 mg/kg/injection, schedule: Q01DX005 (ip), vehicle: saline) 98 % of control; (dose: 400.0 mg/kg/injection, schedule: Q01DX005 (ip), vehicle: saline) 110 % of control; (dose: 800.0 mg/kg/injection, schedule: Q01DX005 (ip), vehicle: saline) 105 % of control; (dose: 1600.0 mg/kg/injection, schedule: Q01DX005 (ip), vehicle: saline) 110 % of control.

Take `C1CCC2C[N-]CCC2C1.C1CCC2C[N-]CCC2C1.C1CCC2C[N-]CCC2C1.C1CCC2C[N-]CCC2C1.[Cl][Rh][Cl]` (centres undefined): the T/C by setting is: (dose: 2.0 mg/kg/injection, schedule: Q01DX005 (ip), vehicle: dextrose) 102 % of control; (dose: 4.0 mg/kg/injection, schedule: Q01DX005 (ip), vehicle: dextrose) 117 % of control.

With `O=NN(CCF)C(=O)NCCO`, the T/C (dose: 5.18 mg/kg/injection, schedule: Q01DX005 (ip), vehicle: Klucel (hydroxypropylcellulose) (HPC)) is 189 % of control; the T/C (dose: 8.64 mg/kg/injection, schedule: Q01DX005 (ip), vehicle: Klucel (hydroxypropylcellulose) (HPC)) was 357 % of control; the T/C (dose: 13.0 mg/kg/injection, schedule: Q01DX001 (ip), vehicle: saline) was 115 % of control; the T/C (dose: 14.4 mg/kg/injection, schedule: Q01DX005 (ip), vehicle: Klucel (hydroxypropylcellulose) (HPC)) is 357 % of control; the T/C (dose: 21.6 mg/kg/injection, schedule: Q01DX001 (ip), vehicle: saline) is 181 % of control; the T/C (dose: 24.0 mg/kg/injection, schedule: Q01DX005 (ip), vehicle: Klucel (hydroxypropylcellulose) (HPC)) is 357 % of control. Besides, the T/C is 363 % of control (dose: 36.0 mg/kg/injection, schedule: Q01DX001 (ip), vehicle: saline) and 363 % of control (dose: 60.0 mg/kg/injection, schedule: Q01DX001 (ip), vehicle: saline).

In the case of `NC(=O)c1cn(C2OC(CO)C(O)C2O)c2ncnc(N)c12` (centres undefined), the T/C was 92 % of control (dose: 0.38 mg/kg/injection, schedule: Q01DX005 (ip), vehicle: Klucel (hydroxypropylcellulose) (HPC)); 90 % of control (dose: 0.75 mg/kg/injection, schedule: Q01DX005 (ip), vehicle: Klucel (hydroxypropylcellulose) (HPC)); 103 % of control (dose: 1.5 mg/kg/injection, schedule: Q01DX005 (ip), vehicle: Klucel (hydroxypropylcellulose) (HPC)); 94 % of control (dose: 3.0 mg/kg/injection, schedule: Q01DX005 (ip), vehicle: Klucel (hydroxypropylcellulose) (HPC)).

For the compound `C[C@]1(O)CC[C@H]2[C@@H]3CCC4=CC(=O)CC[C@]4(C)[C@@]3(F)[C@@H](O)C[C@@]21C`, the T/C by setting is: under setting [1], 91 % of control and 102 % of control; under setting [2], 96 % of control and 102 % of control; under setting [3], 93 % of control; under setting [4], 97 % of control and 98 % of control; under setting [5], 92 % of control and 104 % of control; under setting [6], 93 % of control and 97 % of control. Besides, the T/C under setting [7] was 91 % of control.

Consider `COc1cc2c(c3c1c(=O)c1ccccc1n3C)C=CC(C)(C)O2`, for which the T/C under setting [4] is 114 % of control; the T/C (dose: 128.0 mg/kg/injection, schedule: Q01DX005 (ip), vehicle: suspension in saline) is 108 % of control; the T/C (dose: 256.0 mg/kg/injection, schedule: Q01DX005 (ip), vehicle: suspension in saline) is 120 % of control.

`Nc1nc2c(c(=O)[nH]1)N(C=O)C(CNc1ccc(C(=O)N[C@@H](CCC(=O)O)C(=O)O)cc1)CN2` (some centres undefined): the T/C runs as follows: under setting [8], 101 % of control; under setting [9], 104 % of control; (dose: 150.0 mg/kg/injection, schedule: Q04DX003 (ip), vehicle: saline) 104 % of control; (dose: 256.0 mg/kg/injection, schedule: Q01DX005 (ip), vehicle: saline with Tween-80) 96 % of control; (dose: 256.0 mg/kg/injection, schedule: Q01DX005 (ip), vehicle: saline) 98 % of control; (dose: 300.0 mg/kg/injection, schedule: Q04DX003 (ip), vehicle: saline) 115 % of control. Besides, the T/C is 101 % of control (dose: 512.0 mg/kg/injection, schedule: Q01DX005 (ip), vehicle: saline with Tween-80); 96 % of control (dose: 512.0 mg/kg/injection, schedule: Q01DX005 (ip), vehicle: saline); 101 % of control (dose: 600.0 mg/kg/injection, schedule: Q04DX003 (ip), vehicle: saline); 115 % of control (dose: 1200.0 mg/kg/injection, schedule: Q04DX003 (ip), vehicle: saline).

Consider `CN(Cc1cnc2nc(N)nc(N)c2n1)c1c(Cl)cc(C(=O)NC(CCC(=O)O)C(=O)O)cc1Cl` (centres undefined), for which the T/C is, setting by setting: under setting [10], 95 % of control and 114 % of control; (dose: 16.0 mg/kg/injection, schedule: Q01DX005 (ip), vehicle: saline) 100 % of control; under setting [3], 100 % of control; under setting [11], 97 % of control and 107 % of control; (dose: 32.0 mg/kg/injection, schedule: Q01DX005 (ip), vehicle: saline) 92 % of control and 103 % of control; under setting [4], 104 % of control. In addition, the T/C is, setting by setting: (dose: 64.0 mg/kg/injection, schedule: Q01DX005 (ip), vehicle: saline with Tween-80) 100 % of control and 107 % of control; (dose: 64.0 mg/kg/injection, schedule: Q01DX005 (ip), vehicle: saline) 101 % of control and 104 % of control; under setting [5], 89 % of control; under setting [8], 98 % of control and 100 % of control; under setting [9], 100 % of control and 106 % of control; under setting [6], 96 % of control.

In the case of `Cc1ncc(CO)c(C)c1O`, the T/C is 102 % of control and 108 % of control under setting [5]; 101 % of control and 105 % of control under setting [6].

As to `Cc1[nH]c(=O)[nH]c(=O)c1N(CCF)CCCl`, the T/C is, setting by setting: (dose: 2.0 mg/kg/injection, schedule: Q01DX005 (ip), vehicle: Klucel (hydroxypropylcellulose) (HPC)) 90 % of control; (dose: 2.0 mg/kg/injection, schedule: Q01DX005 (ip), vehicle: saline with Tween-80) 98 % of control and 100 % of control; (dose: 4.0 mg/kg/injection, schedule: Q01DX005 (ip), vehicle: Klucel (hydroxypropylcellulose) (HPC)) 93 % of control and 108 % of control; (dose: 4.0 mg/kg/injection, schedule: Q01DX005 (ip), vehicle: saline with Tween-80) 102 % of control and 105 % of control; under setting [1], 97 % of control and 114 % of control; (dose: 8.0 mg/kg/injection, schedule: Q01DX005 (ip), vehicle: saline with Tween-80) 96 % of control and 100 % of control. Further, the T/C under setting [2] was 107 % of control and 89 % of control; the T/C under setting [10] was 106 % of control and 107 % of control; the T/C under setting [3] is 94 % of control and 123 % of control; the T/C under setting [11] was 100 % of control.

As to `CCC(=O)O[C@H]1CC[C@H]2[C@@H]3CCC4=CC(=O)CC[C@]4(C)[C@H]3CC[C@]12C`, the T/C is 97 % of control and 100 % of control under setting [1]; 101 % of control and 87 % of control under setting [2]; 101 % of control under setting [3]; 106 % of control under setting [4]; 102 % of control and 87 % of control under setting [5]; 95 % of control under setting [6]. The T/C under setting [7] is 95 % of control and 86 % of control.
